Reference: paper PMC11274883, “Anticancer Effect of Pt^[sequence], Pt^II5MESS, Pt^II56MESS and Their Platinum(IV)-Dihydroxy Derivatives against Triple-Negative Breast Cancer and Cisplatin-Resistant Colorectal Cancer” (Cancers, 2024)

Experiments:
Assay type in all cases: cell-based
HT29 cells [1] = assay: DCFDA cellular ROS detection assay; conditions: complexes at IC50, TBHP 20 µM
In short: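 Cells seeded at 2500 cells/well overnight, then loaded with 25 µM DCFH-DA for 45 min. DCF fluorescence (ex/em 485/535 nm, RFU) read at multiple time points; 20 µM TBHP served as positive control. Three independent experiments in triplicate.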

A2780 = assay: WST-1 cytotoxicity, 72 h
In short: (§1)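 Cells were seeded at 1000 per well and exposed to compound for 72 h. Viability was then read with WST-1 (1 h, absorbance at 450 nm). Apparent IC50 values came from nonlinear regression of % survival across three experiments, each with n = 3.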

MCF−7 = assay: WST-1 cytotoxicity, 72 h
In short: as §1

HT29 = assay: WST-1 cytotoxicity, 72 h
In short: as §1

MDA−MB−231 = assay: WST-1 cytotoxicity, 72 h
In short: as §1

ADDP = assay: WST-1 cytotoxicity, 72 h
In short: as §1

MDA−MB−231 cells = assay: Western blot protein expression; conditions: MDA−MB−231, IC50, 72 h
In short: (§2)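 Cells were lysed in RIPA buffer with orthovanadate, and 20 µg protein was run on SDS-PAGE, transferred to PVDF and probed for proliferation, apoptosis, microtubule and autophagy markers. ECL band intensities were normalised to GAPDH and then to untreated control. Three independent experiments were run per marker.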

HT29 cells [2] = assay: Western blot protein expression; conditions: HT29, IC50, 72 h
In short: as §2

[3] = representative blot Figure S30G
[4] = representative blot Figure S30H

Cc1cc2cccnc2c2ncccc12.N[C@H]1CCCC[C@@H]1N.O=[N+]([O-])[O-].O=[N+]([O-])[O-].[OH][Pt+2][OH] [Pt^IV5MESS(OH)2, [Pt(5-methyl-1,10-phenanthroline)(1S,2S-diaminocyclohexane)(dihydroxy)](NO3)2]
ROS production (HT29 cells [1]; HT29, 24 h): 234.55 RFU
ROS production (HT29 cells [1]; HT29, 48 h): 278.33 RFU
ROS production (HT29 cells [1]; HT29, 72 h): 296.67 RFU
potency relative to cisplatin (A2780; A2780, 72 h): 10 fold
IC50 (A2780; A2780, 72 h, mean ± SEM): 2140 ± 1380 nM
Selective cytotoxicity index (SCI) (A2780; IC50 MCF10A/IC50 A2780): 5.71
Selective cytotoxicity index (SCI) (MCF−7; IC50 MCF10A/IC50 MCF−7): 5.66
potency relative to cisplatin (MCF−7; MCF−7, 72 h): 15 fold
IC50 (MCF−7; MCF−7, 72 h, mean ± SEM): 2160 ± 1530 nM
potency relative to cisplatin (HT29; HT29, 72 h): 21 fold
IC50 (HT29; HT29, 72 h, mean ± SEM): 3.64 ± 1.45 µM
Selective cytotoxicity index (SCI) (HT29; IC50 MCF10A/IC50 HT29): 3.36
Selective cytotoxicity index (SCI) (MDA−MB−231; IC50 MCF10A/IC50 MDA−MB−231): 4.38
potency relative to cisplatin (MDA−MB−231; MDA−MB−231, 72 h): 5 fold
IC50 (MDA−MB−231; MDA−MB−231, 72 h, mean ± SEM): 2790 ± 1390 nM
potency relative to cisplatin (ADDP; ADDP, 72 h): 15 fold
IC50 (ADDP; ADDP, 72 h, mean ± SEM): 7.71 ± 1.31 µM
Selective cytotoxicity index (SCI) (ADDP; IC50 MCF10A/IC50 ADDP): 1.58
β-actin/GAPDH normalized to control (1) (MDA−MB−231 cells; representative blot Figure S24A): 0.8788
β-tubulin/GAPDH normalized to control (1) (MDA−MB−231 cells; representative blot Figure S24B): 0.3985
α-tubulin/GAPDH normalized to control (1) (MDA−MB−231 cells; representative blot Figure S24C): 1.177
p-AKT/AKT/GAPDH normalized to control (1) (MDA−MB−231 cells; representative blot Figure S25A): 0.9345
p-ERK/ERK/GAPDH normalized to control (1) (MDA−MB−231 cells; representative blot Figure S25B): 0.144
p53/GAPDH normalized to control (1) (MDA−MB−231 cells; representative blot Figure S25C): 1.183
p21/GAPDH normalized to control (1) (MDA−MB−231 cells; representative blot Figure S25D): 1.042
Bax/GAPDH normalized to control (1) (MDA−MB−231 cells; representative blot Figure S26A): 1.846
Bcl2/GAPDH normalized to control (1) (MDA−MB−231 cells; representative blot Figure S26B): 0.7914
Cytochrome C/GAPDH normalized to control (1) (MDA−MB−231 cells; representative blot Figure S26C): 2.795
Procaspase 8/GAPDH normalized to control (1) (MDA−MB−231 cells; representative blot Figure S26D): 0.3546
Cleaved BID/GAPDH normalized to control (1) (MDA−MB−231 cells; representative blot Figure S26E): 5.948
Procaspase 9/GAPDH normalized to control (1) (MDA−MB−231 cells; representative blot Figure S26F): 0.3022
Procaspase 3/GAPDH normalized to control (1) (MDA−MB−231 cells; representative blot Figure S26G): 0.7167
PARP-1/GAPDH normalized to control (1) (MDA−MB−231 cells; representative blot Figure S26H): 0.5187
Beclin1/GAPDH normalized to control (1) (MDA−MB−231 cells; representative blot Figure S27A): 0.9374
ATG5/GAPDH normalized to control (1) (MDA−MB−231 cells; representative blot Figure S27B): 1.065
ATG16L1/GAPDH normalized to control (1) (MDA−MB−231 cells; representative blot Figure S27C): 1.203
ATG9A/GAPDH normalized to control (1) (MDA−MB−231 cells; representative blot Figure S27D): 0.3984
ATG4B/GAPDH normalized to control (1) (MDA−MB−231 cells; representative blot Figure S27E): 2.797
LC3B/GAPDH normalized to control (1) (MDA−MB−231 cells; representative blot Figure S27F): 0.6059
β-actin/GAPDH normalized to control (1) (HT29 cells [2]; representative blot Figure S28A): 0.2948
β-tubulin/GAPDH normalized to control (1) (HT29 cells [2]; representative blot Figure S28B): 0.1611
α-tubulin/GAPDH normalized to control (1) (HT29 cells [2]; representative blot Figure S28C): 0.1518
p-AKT/AKT/GAPDH normalized to control (1) (HT29 cells [2]; representative blot Figure S29A): 0.4249
p-ERK/ERK/GAPDH normalized to control (1) (HT29 cells [2]; representative blot Figure S29B): 1.297
p53/GAPDH normalized to control (1) (HT29 cells [2]; representative blot Figure S29C): 3.349
p21/GAPDH normalized to control (1) (HT29 cells [2]; representative blot Figure S29D): 2.658
Bax/GAPDH normalized to control (1) (HT29 cells [2]; representative blot Figure S30A): 3.075
Bcl2/GAPDH normalized to control (1) (HT29 cells [2]; representative blot Figure S30B): 0.4381
Cyt C/GAPDH normalized to control (1) (HT29 cells [2]; representative blot Figure S30C): 6.184
Procaspase 8/GAPDH normalized to control (1) (HT29 cells [2]; representative blot Figure S30D): 0.4372
Cleaved BID/GAPDH normalized to control (1) (HT29 cells [2]; representative blot Figure S30E): 2.712
Procaspase 9/GAPDH normalized to control (1) (HT29 cells [2]; representative blot Figure S30F): 0.2026
Cleaved caspase 3/GAPDH normalized to control (1) (HT29 cells [2]; [3]): 7.887
Procaspase 3/GAPDH normalized to control (1) (HT29 cells [2]; [3]): 1.238
Cleaved PARP-1/GAPDH normalized to control (1) (HT29 cells [2]; [4]): 5.761
PARP-1/GAPDH normalized to control (1) (HT29 cells [2]; [4]): 0.6207
Beclin1/GAPDH normalized to control (1) (HT29 cells [2]; representative blot Figure S31A): 6.943
ATG5/GAPDH normalized to control (1) (HT29 cells [2]; representative blot Figure S31B): 0.2364
ATG16L1/GAPDH normalized to control (1) (HT29 cells [2]; representative blot Figure S31C): 2.006
ATG9A/GAPDH normalized to control (1) (HT29 cells [2]; representative blot Figure S31D): 2.334
ATG4B/GAPDH normalized to control (1) (HT29 cells [2]; representative blot Figure S31E): 0.5922
LC3B/GAPDH normalized to control (1) (HT29 cells [2]; representative blot Figure S31F): 1.713
